Results on six molecules are retold here after US7642245B2, “Antibacterial compounds having a (pyrrole carboxamide)-(benzamide)-(imidazole carboxamide) motif” (Oscient Pharmaceuticals Corporation, priority 2002, dated 2010).

In one experiment the test system is E. faecalis ATCC 29212. Kind of experiment: MIC, NCCLS broth microdilution. It counts as cell-based, Enterococcus faecalis. Particulars: C = E. faecalis ATCC 29212. The procedure, abridged: (§1)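 Minimal inhibitory concentration determined by NCCLS broth microdilution in microtiter plates per documents M7-A4, M11-A4 and M27-T. S. aureus ATCC 27660 is a methicillin-resistant strain. The antifungal test on C. albicans followed the method recommended in the Manual of Clinical Microbiology (1995).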

Another experiment deals with E. coli ATCC 25922. Put plainly: MIC, NCCLS broth microdilution. It counts as cell-based, Escherichia coli. Particulars: G = E. coli ATCC 25922. An outline of the steps: as §1
Background: In broth dilution the organism is exposed to a series of concentrations in liquid medium.

For a further experiment, the system named is B. cereus ATCC 11778. Kind of experiment: MIC, NCCLS broth microdilution. It counts as cell-based, Bacillus cereus. Conditions: D = B. cereus ATCC 11778. An outline of the steps: (§2)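 Antibacterial MICs against B. cereus, methicillin-resistant S. aureus and M. catarrhalis were measured by the NCCLS reference broth microdilution method. Yeast testing applied the Manual of Clinical Microbiology antifungal protocol.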

Experiment [1] has as its system M. catarrhalis (ATCC 25238). Kind of experiment: MIC, NCCLS broth microdilution. Conditions: H = M. catarrhalis (ATCC 25238). It counts as cell-based, Moraxella (now Branhamella) catarrhalis. An outline of the steps: as §2
The subject of the next experiment is C. albicans ATCC 38247. Kind of experiment: MIC, antifungal assay. Particulars: F = C. albicans ATCC 38247. It counts as cell-based, Candida albicans. The procedure, abridged:
as §2

The next experiment deals with S. pneumoniae ATCC 49619. Kind of experiment: MIC, NCCLS broth microdilution. It counts as cell-based, Streptococcus pneumoniae. Particulars: E = S. pneumoniae ATCC 49619. An outline of the steps: as §1
In a further experiment the test system is S. aureus ATCC 27660. Put plainly: MIC, NCCLS broth microdilution. Conditions: B = S. aureus ATCC 27660 (MRSA). It counts as cell-based, Staphylococcus aureus. An outline of the steps:
as §2

The next experiment concerns S. aureus ATCC 13709. Put plainly: MIC, NCCLS broth microdilution. It counts as cell-based, Staphylococcus aureus. Conditions: A = S. aureus ATCC 13709 (MSSA). An outline of the steps: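 MIC values come from microtiter-plate broth microdilution run to NCCLS standards (M7-A4, M11-A4, M27-T). For C. albicans ATCC 38247, the antifungal procedure of the 1995 Manual of Clinical Microbiology was used instead.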

In the case of `Cn1cc(NC(=O)c2cc3ccccc3cn2)cc1C(=O)Nc1ccc(C(=O)Nc2cn(C)c(C(=O)NCCN3CCC(OC(=O)CNC(=O)OC(C)(C)C)CC3)n2)cc1` [Compound A-66], the “Minimum Inhibitory Concentration (MIC)” value with E. faecalis ATCC 29212 is “+++ (MIC ≦ 4 μg/mL)”; with E. coli ATCC 25922 it was above 32 µg/mL; with B. cereus ATCC 11778 it was “+++ (MIC ≦ 4 μg/mL)”; in experiment [1], “+++ (MIC ≦ 4 μg/mL)”; in the experiment on C. albicans ATCC 38247, above 32 µg/mL; in the experiment on S. pneumoniae ATCC 49619 it was “+++ (MIC ≦ 4 μg/mL)”. The “Minimum Inhibitory Concentration (MIC)” value in the experiment with S. aureus ATCC 27660 and in the experiment on S. aureus ATCC 13709 was “+++ (MIC ≦ 4 μg/mL)” throughout.

On to `Cn1cc(NC(=O)c2cc3ccccc3cn2)cc1C(=O)Nc1ccc(C(=O)Nc2cn(C)c(C(=O)NCCN3CCC(OC(=O)CN)CC3)n2)cc1` [Compound A-67], for which the “Minimum Inhibitory Concentration (MIC)” value in the experiment with E. faecalis ATCC 29212 is on record as “+++ (MIC ≦ 4 μg/mL)”; in the experiment with E. coli ATCC 25922 it was “+ (12 ≦ MIC ≦ 32 μg/mL)”; in the experiment on B. cereus ATCC 11778 it was “+++ (MIC ≦ 4 μg/mL)”; in experiment [1] it was “+++ (MIC ≦ 4 μg/mL)”; in the experiment with C. albicans ATCC 38247, “++ (4 < MIC < 12 μg/mL)”; with S. pneumoniae ATCC 49619 it was “+++ (MIC ≦ 4 μg/mL)”. Besides, the “Minimum Inhibitory Concentration (MIC)” value with S. aureus ATCC 27660 and in the experiment with S. aureus ATCC 13709 was “+++ (MIC ≦ 4 μg/mL)” each time.

For `Cn1cc(NC(=O)c2cc3ccccc3cn2)cc1C(=O)Nc1ccc(C(=O)Nc2cn(C)c(C(=O)NCCN3CCC(OC(=O)CNS(=O)(=O)O)CC3)n2)cc1` [Compound A-68], the “Minimum Inhibitory Concentration (MIC)” value was “+++ (MIC ≦ 4 μg/mL)” in the experiment on E. faecalis ATCC 29212; above 32 µg/mL with E. coli ATCC 25922; “+++ (MIC ≦ 4 μg/mL)” with B. cereus ATCC 11778; above 32 µg/mL in experiment [1]; above 32 µg/mL in the experiment with C. albicans ATCC 38247; “+ (12 ≦ MIC ≦ 32 μg/mL)” in the experiment with S. pneumoniae ATCC 49619. Besides, the “Minimum Inhibitory Concentration (MIC)” value in the experiment with S. aureus ATCC 27660 and in the experiment with S. aureus ATCC 13709 was “+++ (MIC ≦ 4 μg/mL)” each time.

Consider `Cn1cc(NC(=O)c2cc3ccccc3cn2)cc1C(=O)Nc1ccc(C(=O)Nc2cn(C)c(C(=O)NCCN3CCC(O)C3)n2)cc1` (stereo not drawn) [Compound A-70], for which the “Minimum Inhibitory Concentration (MIC)” value in the experiment on E. faecalis ATCC 29212 is “+++ (MIC ≦ 4 μg/mL)”; in the experiment with E. coli ATCC 25922, “+++ (MIC ≦ 4 μg/mL)”; in the experiment with B. cereus ATCC 11778, “+++ (MIC ≦ 4 μg/mL)”; in experiment [1], “+++ (MIC ≦ 4 μg/mL)”; in the experiment on C. albicans ATCC 38247, above 32 µg/mL; in the experiment with S. pneumoniae ATCC 49619, “+++ (MIC ≦ 4 μg/mL)”. Further, the “Minimum Inhibitory Concentration (MIC)” value with S. aureus ATCC 27660 and in the experiment on S. aureus ATCC 13709 was “+++ (MIC ≦ 4 μg/mL)” each time.

As for `Cn1cc(NC(=O)c2cc3ccccc3cn2)cc1C(=O)Nc1ccc(C(=O)Nc2cn(C)c(C(=O)NCCN3CCCC(O)C3)n2)cc1` (stereo not drawn) [Compound A-72], the “Minimum Inhibitory Concentration (MIC)” value is “+++ (MIC ≦ 4 μg/mL)” in the experiment with E. faecalis ATCC 29212; above 32 µg/mL with E. coli ATCC 25922; “+++ (MIC ≦ 4 μg/mL)” in the experiment with B. cereus ATCC 11778; “+++ (MIC ≦ 4 μg/mL)” in experiment [1]; above 32 µg/mL in the experiment on C. albicans ATCC 38247; “+++ (MIC ≦ 4 μg/mL)” in the experiment with S. pneumoniae ATCC 49619. Besides, the “Minimum Inhibitory Concentration (MIC)” value with S. aureus ATCC 27660 and with S. aureus ATCC 13709 was “+++ (MIC ≦ 4 μg/mL)” in each case.

`Cn1cc(NC(=O)c2cc3ccccc3cn2)cc1C(=O)Nc1ccc(C(=O)Nc2cn(C)c(C(=O)NCCN3CCN(CCOC(=O)CNS(=O)(=O)O)CC3)n2)cc1` [Compound A-73]: the “Minimum Inhibitory Concentration (MIC)” value with E. faecalis ATCC 29212 was “+++ (MIC ≦ 4 μg/mL)”; in the experiment with E. coli ATCC 25922, above 32 µg/mL; with B. cereus ATCC 11778, “+++ (MIC ≦ 4 μg/mL)”; in experiment [1], above 32 µg/mL; in the experiment with C. albicans ATCC 38247, above 32 µg/mL; in the experiment on S. pneumoniae ATCC 49619 it was “+++ (MIC ≦ 4 μg/mL)”. In addition, the “Minimum Inhibitory Concentration (MIC)” value in the experiment on S. aureus ATCC 27660 and with S. aureus ATCC 13709 was “+++ (MIC ≦ 4 μg/mL)” each time.
